Several values for one entry are separate records, joined by “and”; a condition that tells them apart may be missing. Equal values may be shown once.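 In this assay, cells in 96-well plates receive the compound at five concentrations for 48 hours. Endpoints are linearly interpolated between the surrounding concentrations. The concentration for 50% growth inhibition is given as GI50. TGI: concentration producing complete growth inhibition.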
What was measured:
Assay in all cases: growth of human tumour cells (NCI), 48 h
CAKI-1 renal = test system: CAKI-1 renal
ACHN renal = test system: ACHN renal
UACC-62 melanoma = test system: UACC-62 melanoma
SK-OV-3 ovarian = test system: SK-OV-3 ovarian
HOP-92 NSCLC = test system: HOP-92 NSCLC
OVCAR-3 ovarian = test system: OVCAR-3 ovarian
UACC-257 melanoma = test system: UACC-257 melanoma
EKVX NSCLC = test system: EKVX NSCLC
BT-549 breast = test system: BT-549 breast
RPMI-8226 leukemia = test system: RPMI-8226 leukemia
OVCAR-4 ovarian = test system: OVCAR-4 ovarian
SF-539 CNS = test system: SF-539 CNS
MCF7 breast = test system: MCF7 breast
SK-MEL-2 melanoma = test system: SK-MEL-2 melanoma
SF-295 CNS = test system: SF-295 CNS
A549 NSCLC = test system: A549 NSCLC
A498 renal = test system: A498 renal
IGROV1 ovarian = test system: IGROV1 ovarian
DU-145 prostate = test system: DU-145 prostate
LOX IMVI melanoma = test system: LOX IMVI melanoma
NCI-H522 lung = test system: NCI-H522 lung
T-47D breast = test system: T-47D breast
CCRF-CEM leukemia = test system: CCRF-CEM leukemia
NCI/ADR-RES ovarian = test system: NCI/ADR-RES ovarian
NCI-H460 lung = test system: NCI-H460 lung
HL-60(TB) leukemia = test system: HL-60(TB) leukemia
K-562 leukemia = test system: K-562 leukemia
KM12 colon = test system: KM12 colon
HCT-15 colon = test system: HCT-15 colon
MDA-MB-435 = test system: MDA-MB-435
HCT-116 colon = test system: HCT-116 colon
PC-3 prostate = test system: PC-3 prostate
TK-10 renal = test system: TK-10 renal
HT29 colon = test system: HT29 colon
SF-268 CNS = test system: SF-268 CNS
SK-MEL-28 melanoma = test system: SK-MEL-28 melanoma
SW-620 colon = test system: SW-620 colon
NCI-H226 lung = test system: NCI-H226 lung
MDA-N = test system: MDA-N
HS 578T breast = test system: HS 578T breast
OVCAR-8 ovarian = test system: OVCAR-8 ovarian
SK-MEL-5 melanoma = test system: SK-MEL-5 melanoma
HCC-2998 colon = test system: HCC-2998 colon
SNB-19 CNS = test system: SNB-19 CNS
786-0 renal = test system: 786-0 renal
MOLT-4 leukemia = test system: MOLT-4 leukemia
SNB-75 CNS = test system: SNB-75 CNS
SN12C renal = test system: SN12C renal
U251 CNS = test system: U251 CNS
COLO 205 colon = test system: COLO 205 colon
MALME-3M melanoma = test system: MALME-3M melanoma
MDA-MB-231 breast = test system: MDA-MB-231 breast
NCI-H23 lung = test system: NCI-H23 lung
OVCAR-5 ovarian = test system: OVCAR-5 ovarian
UO-31 renal = test system: UO-31 renal
HOP-62 NSCLC = test system: HOP-62 NSCLC
SR leukemia = test system: SR leukemia
M14 melanoma = test system: M14 melanoma
RXF 393 renal = test system: RXF 393 renal

## COc1cc2cc3c4cc(OC)c(OC)cc4cc[n+]3c(C)c2cc1OC
CAKI-1 renal
  TGI: > 100 µM
ACHN renal
  TGI: > 100 µM
UACC-62 melanoma
  TGI: 98.6 µM
SK-OV-3 ovarian
  TGI: > 100 µM
HOP-92 NSCLC
  TGI: > 100 µM
OVCAR-3 ovarian
  TGI: > 100 µM
UACC-257 melanoma
  TGI: > 100 µM
EKVX NSCLC
  TGI: > 100 µM
BT-549 breast
  TGI: > 100 µM
RPMI-8226 leukemia
  TGI: > 100 µM
OVCAR-4 ovarian
  TGI: > 100 µM
SF-539 CNS
  TGI: > 100 µM
MCF7 breast
  TGI: > 100 µM
SK-MEL-2 melanoma
  TGI: > 100 µM
SF-295 CNS
  TGI: > 100 µM
A549 NSCLC
  TGI: > 100 µM
A498 renal
  TGI: > 100 µM
IGROV1 ovarian
  TGI: > 100 µM
DU-145 prostate
  TGI: > 100 µM
LOX IMVI melanoma
  TGI: > 100 µM
NCI-H522 lung
  TGI: > 100 µM
T-47D breast
  TGI: > 100 µM
CCRF-CEM leukemia
  TGI: > 100 µM
NCI/ADR-RES ovarian
  TGI: > 100 µM
NCI-H460 lung
  TGI: > 100 µM
HL-60(TB) leukemia
  TGI: > 100 µM
K-562 leukemia
  TGI: > 100 µM
KM12 colon
  TGI: > 100 µM
HCT-15 colon
  TGI: > 100 µM
MDA-MB-435
  TGI: > 100 µM
HCT-116 colon
  TGI: > 100 µM
PC-3 prostate
  TGI: > 100 µM
TK-10 renal
  TGI: > 100 µM
HT29 colon
  TGI: > 100 µM
SF-268 CNS
  TGI: > 100 µM
SK-MEL-28 melanoma
  TGI: > 100 µM
SW-620 colon
  TGI: > 100 µM
NCI-H226 lung
  TGI: > 100 µM
MDA-N
  TGI: > 100 µM
HS 578T breast
  TGI: > 100 µM
OVCAR-8 ovarian
  TGI: > 100 µM
SK-MEL-5 melanoma
  TGI: > 100 µM
HCC-2998 colon
  TGI: > 100 µM
SNB-19 CNS
  TGI: > 100 µM
786-0 renal
  TGI: 37.9 µM
MOLT-4 leukemia
  TGI: > 100 µM
SNB-75 CNS
  TGI: 45.7 µM
SN12C renal
  TGI: > 100 µM
U251 CNS
  TGI: > 100 µM
COLO 205 colon
  TGI: > 100 µM
MALME-3M melanoma
  TGI: > 100 µM
MDA-MB-231 breast
  TGI: > 100 µM
NCI-H23 lung
  TGI: > 100 µM
OVCAR-5 ovarian
  TGI: > 100 µM
UO-31 renal
  TGI: > 100 µM

## [N-]=[N+]=CC(=O)OCC1NC(=O)C(COC(=O)C=[N+]=[N-])NC1=O (configuration not stated)
CAKI-1 renal
  TGI: > 100 µM
ACHN renal
  TGI: > 100 µM
UACC-62 melanoma
  TGI: > 100 µM
SK-OV-3 ovarian
  TGI: > 100 µM
HOP-92 NSCLC
  TGI: > 100 µM
OVCAR-3 ovarian
  TGI: > 100 µM
UACC-257 melanoma
  TGI: > 100 µM
EKVX NSCLC
  TGI: > 100 µM
RPMI-8226 leukemia
  TGI: > 100 µM
OVCAR-4 ovarian
  TGI: > 100 µM
SF-539 CNS
  TGI: > 100 µM
MCF7 breast
  TGI: > 100 µM
SK-MEL-2 melanoma
  TGI: > 100 µM
SF-295 CNS
  TGI: > 100 µM
A549 NSCLC
  TGI: > 100 µM
A498 renal
  TGI: > 100 µM
IGROV1 ovarian
  TGI: > 100 µM
HOP-62 NSCLC
  TGI: > 100 µM
DU-145 prostate
  TGI: > 100 µM
LOX IMVI melanoma
  TGI: > 100 µM
SR leukemia
  TGI: > 100 µM
T-47D breast
  TGI: > 100 µM
CCRF-CEM leukemia
  TGI: > 100 µM
NCI/ADR-RES ovarian
  TGI: > 100 µM
NCI-H460 lung
  TGI: > 100 µM
HL-60(TB) leukemia
  TGI: > 100 µM
K-562 leukemia
  TGI: > 100 µM
KM12 colon
  TGI: > 100 µM
M14 melanoma
  TGI: > 100 µM
HCT-15 colon
  TGI: > 100 µM
MDA-MB-435
  TGI: > 100 µM
HCT-116 colon
  TGI: > 100 µM
PC-3 prostate
  TGI: > 100 µM
TK-10 renal
  TGI: > 100 µM
HT29 colon
  TGI: > 100 µM
SF-268 CNS
  TGI: > 100 µM
SK-MEL-28 melanoma
  TGI: > 100 µM
SW-620 colon
  TGI: > 100 µM
NCI-H226 lung
  TGI: > 100 µM
MDA-N
  TGI: > 100 µM
HS 578T breast
  TGI: > 100 µM
OVCAR-8 ovarian
  TGI: > 100 µM
HCC-2998 colon
  TGI: > 100 µM
SNB-19 CNS
  TGI: > 100 µM
786-0 renal
  TGI: > 100 µM
MOLT-4 leukemia
  TGI: > 100 µM
SNB-75 CNS
  TGI: > 100 µM
SN12C renal
  TGI: > 100 µM
U251 CNS
  TGI: > 100 µM
RXF 393 renal
  GI50: 15.8 µM and > 100 µM
  TGI: > 100 µM
COLO 205 colon
  TGI: > 100 µM
MALME-3M melanoma
  TGI: > 100 µM
MDA-MB-231 breast
  TGI: > 100 µM
NCI-H23 lung
  TGI: > 100 µM
OVCAR-5 ovarian
  TGI: > 100 µM
UO-31 renal
  TGI: > 100 µM

— PubChem BioAssay (NCI)
